{
  "source": "patent US11364275B2",
  "about": "“Linear lipopeptide paenipeptins and methods of using the same” (priority 2017, dated 2022)",
  "key": {"[1]": {"tested_on": "A. baumannii FDA-CDC AR 0037"}, "[2]": {"tested_on": "K. pneumoniae FDA-CDC AR 0044"}, "[3]": {"tested_on": "K. pneumoniae FDA-CDC AR 0080"}, "[4]": {"tested_on": "A. baumannii FDA-CDC AR 0063"}, "[5]": {"tested_on": "K. pneumoniae FDA-CDC AR 0034"}, "[6]": {"tested_on": "A. baumannii FDA-CDC AR 0052"}, "[7]": {"tested_on": "10 carbapenem-resistant strains", "conditions": "all 10 tested strains"}, "[8]": {"tested_on": "K. pneumoniae FDA-CDC AR 0097"}, "[9]": {"tested_on": "A. baumannii FDA-CDC AR 0070"}, "[10]": {"tested_on": "K. pneumoniae FDA-CDC AR 0068"}, "[11]": {"tested_on": "A. baumannii FDA-CDC AR 0083"}},
  "note": "Where a SMILES comes first, the peptide text is derived from it. Bridges are numbered along the chain shown (N, C = ends). [ ]: non-standard residue; d: D form. Dab = NCC[C@H](N)C(=O)O",
  "data": [
    {"smiles": "CC(C)C[C@@H]1NC(=O)[C@@H](Cc2ccccc2)NC(=O)[C@H](CCN)NC(=O)[C@@H](NC(=O)[C@H](CCN)NC(=O)[C@@H](N)[C@@H](C)O)CCNC(=O)[C@H]([C@@H](C)O)NC(=O)[C@H](CCN)NC(=O)[C@H](CCN)NC1=O", "note": "[polymyxin B nonapeptide, reference compound] (H-T[Dab][Dab][Dab][dF]L[Dab][Dab]T; lactam 3-C (inferred); N-terminus assumed)", "values": [
      {"measurement": "MIC of clarithromycin at the presence of PMBN or paenipeptin analogue at 4 μg/ml", "setting": "[1]; A. baumannii AR 0037", "value": "0.125-0.25 μg/ml"},
      {"measurement": "MIC of rifampicin at the presence of PMBN or paenipeptin analogue at 4 μg/ml", "setting": "[1]; A. baumannii AR 0037", "value": 0.25, "unit": "μg/ml"},
      {"measurement": "MIC alone", "setting": "[1]; FDA-CDC AR 0037", "value": ">32", "unit": "µg/mL"},
      {"measurement": "MIC alone", "setting": "[2]; FDA-CDC AR 0044", "value": ">32", "unit": "µg/mL"},
      {"measurement": "MIC of clarithromycin at the presence of PMBN or paenipeptin analogue at 4 μg/ml", "setting": "[2]; K. pneumoniae AR 0044", "value": 4, "unit": "μg/ml"},
      {"measurement": "MIC of rifampicin at the presence of PMBN or paenipeptin analogue at 4 μg/ml", "setting": "[2]; K. pneumoniae AR 0044", "value": 2, "unit": "μg/ml"},
      {"measurement": "MIC alone", "setting": "[3]; FDA-CDC AR 0080", "value": ">32", "unit": "µg/mL"},
      {"measurement": "MIC of clarithromycin at the presence of PMBN or paenipeptin analogue at 4 μg/ml", "setting": "[3]; K. pneumoniae AR 0080", "value": 4, "unit": "μg/ml"},
      {"measurement": "MIC of rifampicin at the presence of PMBN or paenipeptin analogue at 4 μg/ml", "setting": "[3]; K. pneumoniae AR 0080", "value": ">32", "unit": "μg/ml"},
      {"measurement": "MIC of clarithromycin at the presence of PMBN or paenipeptin analogue at 4 μg/ml", "setting": "[4]; A. baumannii AR 0063", "value": "0.5-1 μg/ml"},
      {"measurement": "MIC of rifampicin at the presence of PMBN or paenipeptin analogue at 4 μg/ml", "setting": "[4]; A. baumannii AR 0063", "value": 0.125, "unit": "μg/ml"},
      {"measurement": "MIC alone", "setting": "[4]; FDA-CDC AR 0063", "value": ">32", "unit": "µg/mL"},
      {"measurement": "MIC alone", "setting": "[5]; FDA-CDC AR 0034", "value": ">32", "unit": "µg/mL"},
      {"measurement": "MIC of clarithromycin at the presence of PMBN or paenipeptin analogue at 4 μg/ml", "setting": "[5]; K. pneumoniae AR 0034", "value": ">32", "unit": "μg/ml"},
      {"measurement": "MIC of rifampicin at the presence of PMBN or paenipeptin analogue at 4 μg/ml", "setting": "[5]; K. pneumoniae AR 0034", "value": 1, "unit": "μg/ml"},
      {"measurement": "MIC of clarithromycin at the presence of PMBN or paenipeptin analogue at 4 μg/ml", "setting": "[6]; A. baumannii AR 0052", "value": "0.0313-0.0625 μg/ml"},
      {"measurement": "MIC of rifampicin at the presence of PMBN or paenipeptin analogue at 4 μg/ml", "setting": "[6]; A. baumannii AR 0052", "value": "0.0625-0.125 μg/ml"},
      {"measurement": "MIC alone", "setting": "[6]; FDA-CDC AR 0052", "value": ">32", "unit": "µg/mL"},
      {"measurement": "MIC alone", "setting": "[7]", "value": "> 32", "unit": "µg/mL"},
      {"measurement": "MIC alone", "setting": "[8]; FDA-CDC AR 0097", "value": ">32", "unit": "µg/mL"},
      {"measurement": "MIC of clarithromycin at the presence of PMBN or paenipeptin analogue at 4 μg/ml", "setting": "[8]; K. pneumoniae AR 0097", "value": 32, "unit": "μg/ml"},
      {"measurement": "MIC of rifampicin at the presence of PMBN or paenipeptin analogue at 4 μg/ml", "setting": "[8]; K. pneumoniae AR 0097", "value": 16, "unit": "μg/ml"},
      {"measurement": "MIC of clarithromycin at the presence of PMBN or paenipeptin analogue at 4 μg/ml", "setting": "[9]; A. baumannii AR 0070", "value": "0.25-0.5 μg/ml"},
      {"measurement": "MIC of rifampicin at the presence of PMBN or paenipeptin analogue at 4 μg/ml", "setting": "[9]; A. baumannii AR 0070", "value": "0.0625-0.125 μg/ml"},
      {"measurement": "MIC alone", "setting": "[9]; FDA-CDC AR 0070", "value": ">32", "unit": "µg/mL"},
      {"measurement": "MIC alone", "setting": "[10]; FDA-CDC AR 0068", "value": ">32", "unit": "µg/mL"},
      {"measurement": "MIC of clarithromycin at the presence of PMBN or paenipeptin analogue at 4 μg/ml", "setting": "[10]; K. pneumoniae AR 0068", "value": ">32", "unit": "μg/ml"},
      {"measurement": "MIC of rifampicin at the presence of PMBN or paenipeptin analogue at 4 μg/ml", "setting": "[10]; K. pneumoniae AR 0068", "value": "2-8 μg/ml"},
      {"measurement": "MIC of clarithromycin at the presence of PMBN or paenipeptin analogue at 4 μg/ml", "setting": "[11]; A. baumannii AR 0083", "value": 32, "unit": "μg/ml"},
      {"measurement": "MIC of rifampicin at the presence of PMBN or paenipeptin analogue at 4 μg/ml", "setting": "[11]; A. baumannii AR 0083", "value": 8, "unit": "μg/ml"},
      {"measurement": "MIC alone", "setting": "[11]; FDA-CDC AR 0083", "value": ">32", "unit": "µg/mL"}
    ]}
  ]
}
